Experimental data reported in ChEMBL document CHEMBL1201862, “PubChem BioAssay data set” (2004).
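Cultured in 96-well plates, cells were exposed to test compound for 48 hours across five concentrations. Here, GI50 denotes the concentration required for 50% inhibition of growth.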 Calls of active or inactive are those of the source. Cut-off read from the data, not from the text of the source: active = GI50 up to about 1.1 µM and inactive = higher.

Columns and labels:
Assay in all cases: NCI anticancer screen, dose series, 48 h
[1] = test system: UACC-62
[2] = test system: A498
[3] = test system: UACC-257
[4] = test system: MDA-N
[5] = test system: NCI-H23
[6] = test system: 786-0
[7] = test system: MCF7
[8] = test system: COLO 205
[9] = test system: SK-MEL-5
[10] = test system: SF-539
[11] = test system: DU-145
[12] = test system: SK-MEL-28
[13] = test system: PC-3
[14] = test system: EKVX
[15] = test system: NCI-H460
[16] = test system: HOP-62
[17] = test system: UO-31
[18] = test system: RPMI-8226
[19] = test system: MOLT-4
[20] = test system: NCI-H522
[21] = test system: Malme-3M
[22] = test system: U-251
[23] = test system: OVCAR-3
[24] = test system: MDA-MB-231
[25] = test system: SF-295
[26] = test system: Hs-578T
[27] = test system: SN12C
[28] = test system: OVCAR-5
[29] = test system: SF-268
[30] = test system: SW-620
[31] = test system: A549
[32] = test system: NCI/ADR-RES
[33] = test system: ACHN
[34] = test system: KM12
[35] = test system: CCRF-CEM
[36] = test system: BT-549
[37] = test system: CAKI-1
[38] = test system: MDA-MB-435
[39] = test system: NCI-H226
[40] = test system: T47D
[41] = test system: OVCAR-8
[42] = test system: HOP-92
[43] = test system: K562
[44] = test system: OVCAR-4
[45] = test system: SK-OV-3
[46] = test system: HCT-15
[47] = test system: IGROV-1
[48] = test system: RXF 393
[49] = test system: LOX IMVI
[50] = test system: SNB-19
[51] = test system: HT-29
[52] = test system: SK-MEL-2
[53] = test system: HCT-116
[54] = test system: TK-10
[55] = test system: SR
[56] = test system: HCC 2998
[57] = test system: SNB-75
[58] = test system: M14
[59] = test system: HL-60

In the case of `O=S(=O)(NC1OCCCC1I)c1ccccc1` (stereo not drawn), the GI50 [1] was > 100 µM (inactive), the GI50 [2] was > 100 µM (inactive) and the GI50 [3] was > 100 µM (inactive). For the same molecule, the GI50 [4] was > 100 µM (inactive), the GI50 [5] was > 100 µM (inactive) and the GI50 [6] was > 100 µM (inactive). For the same molecule, the GI50 [7] was > 100 µM (inactive), the GI50 [8] was > 100 µM (inactive) and the GI50 [9] was > 100 µM (inactive). For the same molecule, the GI50 [10] was > 100 µM (inactive), the GI50 [11] was > 100 µM (inactive) and the GI50 [12] was > 100 µM (inactive). For the same molecule, the GI50 [13] was > 100 µM (inactive), the GI50 [14] was > 100 µM (inactive) and the GI50 [15] was > 100 µM (inactive). For the same molecule, the GI50 [16] was > 100 µM (inactive), the GI50 [17] was > 100 µM (inactive) and the GI50 [18] was 43.2 µM (inactive). The GI50 [19] was > 100 µM (inactive), the GI50 [20] was > 100 µM (inactive) and the GI50 [21] was > 100 µM (inactive). For the same molecule, the GI50 [22] was > 100 µM (inactive), the GI50 [23] was > 100 µM (inactive) and the GI50 [24] was > 100 µM (inactive). The GI50 [25] was > 100 µM (inactive), the GI50 [26] was > 100 µM (inactive) and the GI50 [27] was > 100 µM (inactive). For the same molecule, the GI50 [28] was > 100 µM (inactive), the GI50 [29] was > 100 µM (inactive) and the GI50 [30] was > 100 µM (inactive). The GI50 [31] was > 100 µM (inactive), the GI50 [32] was > 100 µM (inactive) and the GI50 [33] was > 100 µM (inactive). For the same molecule, the GI50 [34] was > 100 µM (inactive), the GI50 [35] was 68.4 µM (inactive) and the GI50 [36] was > 100 µM (inactive). For the same molecule, the GI50 [37] was > 100 µM (inactive), the GI50 [38] was > 100 µM (inactive) and the GI50 [39] was > 100 µM (inactive). The GI50 [40] was > 100 µM (inactive), the GI50 [41] was > 100 µM (inactive) and the GI50 [42] was > 100 µM (inactive). The GI50 [43] was > 100 µM (inactive), the GI50 [44] was 89.7 µM (inactive) and the GI50 [45] was > 100 µM (inactive). For the same molecule, the GI50 [46] was over 100 µM, the GI50 [47] was 44.5 µM (inactive) and the GI50 [48] was > 100 µM (inactive). For the same molecule, the GI50 [49] was 84.9 µM (inactive), the GI50 [50] was > 100 µM (inactive) and the GI50 [51] was > 100 µM (inactive). For the same molecule, the GI50 [52] was > 100 µM (inactive), the GI50 [53] was > 100 µM (inactive) and the GI50 [54] was > 100 µM (inactive). The GI50 [55] was > 100 µM (inactive), the GI50 [56] was > 100 µM (inactive) and the GI50 [57] was > 100 µM (inactive).
With `O[C@]12C=C(c3nccc4c3[nH]c3ccccc34)[C@@H]3CCN(CCCC/C=C\CC1)C[C@@]31CC3/C=C\CCCCN3[C@H]12` (stereo partly drawn) the GI50 [1] was 0.0733 µM (active), the GI50 [2] was 0.364 µM (active) and the GI50 [3] was 0.652 µM (active). The GI50 [4] was 0.367 µM (active), the GI50 [5] was 0.213 µM (active) and the GI50 [6] was 0.13 µM (active). The GI50 [7] was 0.478 µM (active), the GI50 [8] was 0.344 µM (active) and the GI50 [9] was 0.187 µM (active). For the same molecule, the GI50 [10] was 0.53 µM (active), the GI50 [11] was 0.344 µM (active) and the GI50 [12] was 0.615 µM (active). For the same molecule, the GI50 [13] was 0.351 µM (active), the GI50 [14] was 0.441 µM (active) and the GI50 [15] was 0.191 µM (active). The GI50 [16] was 0.223 µM (active), the GI50 [17] was 0.199 µM (active) and the GI50 [18] was 0.31 µM (active). The GI50 [19] was 0.138 µM (active), the GI50 [20] was 0.263 µM (active) and the GI50 [21] was 0.509 µM (active). The GI50 [58] was 0.371 µM (active), the GI50 [22] was 0.355 µM (active) and the GI50 [23] was 0.302 µM (active). The GI50 [24] was 0.484 µM (active), the GI50 [25] was 0.513 µM (active) and the GI50 [26] was 0.411 µM (active). For the same molecule, the GI50 [27] was 0.44 µM (active), the GI50 [28] was 0.405 µM (active) and the GI50 [29] was 0.533 µM (active). The GI50 [30] was 0.306 µM (active), the GI50 [31] was 0.36 µM (active) and the GI50 [32] was 0.514 µM (active). For the same molecule, the GI50 [33] was 0.299 µM (active), the GI50 [34] was 0.387 µM (active) and the GI50 [35] was 0.74 µM (active). The GI50 [36] was 0.804 µM (active), the GI50 [37] was 0.541 µM (active) and the GI50 [38] was 0.366 µM (active). For the same molecule, the GI50 [39] was 0.582 µM (active), the GI50 [40] was 0.34 µM (active) and the GI50 [41] was 0.331 µM (active). The GI50 [42] was 0.252 µM (active), the GI50 [43] was 0.367 µM (active) and the GI50 [44] was 0.454 µM (active). The GI50 [45] was 0.0869 µM (active), the GI50 [46] was 0.288 µM and the GI50 [47] was 0.112 µM (active). The GI50 [49] was 0.275 µM (active), the GI50 [50] was 1.23 µM (inactive) and the GI50 [51] was 0.119 µM (active). For the same molecule, the GI50 [52] was 0.244 µM (active), the GI50 [53] was 0.243 µM (active) and the GI50 [54] was 0.378 µM (active). The GI50 [55] was 0.311 µM (active), the GI50 [56] was 0.284 µM (active) and the GI50 [57] was 0.242 µM (active). The GI50 [59] was 0.248 µM (active).
In the case of `CC(=O)OC(OC(C)=O)c1c2ccccc2cc2ccccc12`, the GI50 [1] was 15.9 µM (inactive), the GI50 [2] was 17.7 µM (inactive) and the GI50 [3] was 21 µM (inactive). For the same molecule, the GI50 [4] was 22 µM (inactive), the GI50 [5] was 25.1 µM (inactive) and the GI50 [6] was 20.3 µM (inactive). For the same molecule, the GI50 [7] was 16.5 µM (inactive), the GI50 [8] was 17.8 µM (inactive) and the GI50 [9] was 11.9 µM (inactive). For the same molecule, the GI50 [10] was 14.8 µM (inactive), the GI50 [11] was 27.9 µM (inactive) and the GI50 [13] was 3.59 µM (inactive). The GI50 [14] was 20 µM (inactive), the GI50 [15] was 14.6 µM (inactive) and the GI50 [17] was 19.3 µM (inactive). For the same molecule, the GI50 [18] was 16.6 µM (inactive), the GI50 [19] was 2.78 µM (inactive) and the GI50 [58] was 20.5 µM (inactive). For the same molecule, the GI50 [22] was 5.98 µM (inactive), the GI50 [23] was 21.4 µM (inactive) and the GI50 [24] was 18 µM (inactive). For the same molecule, the GI50 [25] was 20.7 µM (inactive), the GI50 [26] was 23.2 µM (inactive) and the GI50 [27] was 12.9 µM (inactive). The GI50 [28] was 30.5 µM (inactive), the GI50 [29] was 18.4 µM (inactive) and the GI50 [30] was 3.18 µM (inactive). The GI50 [31] was 19.1 µM (inactive), the GI50 [32] was 8.34 µM (inactive) and the GI50 [33] was 24.1 µM (inactive). For the same molecule, the GI50 [34] was 6.93 µM (inactive), the GI50 [35] was 2.39 µM (inactive) and the GI50 [36] was 14.9 µM (inactive). The GI50 [37] was 30.5 µM (inactive), the GI50 [38] was 24.6 µM (inactive) and the GI50 [39] was 17.9 µM (inactive). The GI50 [40] was 17.2 µM (inactive), the GI50 [41] was 15.5 µM (inactive) and the GI50 [42] was 21.4 µM (inactive). For the same molecule, the GI50 [43] was 3.56 µM (inactive), the GI50 [45] was 20.9 µM (inactive) and the GI50 [46] was 7.55 µM. The GI50 [47] was 21.2 µM (inactive), the GI50 [48] was 13.3 µM (inactive) and the GI50 [49] was 4.35 µM (inactive). For the same molecule, the GI50 [50] was 14.8 µM (inactive), the GI50 [51] was 13.4 µM (inactive) and the GI50 [53] was 10.3 µM (inactive). For the same molecule, the GI50 [54] was 20.4 µM (inactive), the GI50 [55] was 9.53 µM (inactive) and the GI50 [56] was 15.6 µM (inactive). For the same molecule, the GI50 [57] was 17.3 µM (inactive) and the GI50 [59] was 23.7 µM (inactive).
